Test results taken from US9938257B2 (Sunshine Lake Pharma Co., Ltd., priority 2015, dated 2018).
pIC50: −log10 of the molar value. Blank lines part the entries; values can stand above or below the molecule they belong to.

Experiments:
JAK1 (h) = JAK1 (h) (Homo sapiens (Human), UniProt P23458); test: JAK1 (h) kinase activity assay; assay type: biochemical
Experimental: (§1) The above assay procedure can be used to determine the IC50 for inhibition and/or the inhibition constant, Ki. The IC50 is defined as the concentration of compound required to reduce the enzyme activity by 50% under the condition of the assay. The IC50 value is estimated by preparing a 10 point curve using a ½ log dilution series (for example, a typical curve may be prepared using the following compound concentrations: 3 μM, 1 μM, 0.3 μM, 0.1 μM, 0.03 μM, 0.01 μM, 0.003 μM, 0.001 μM, 0.0003 μM and 0 μM).
JAK1 (h) is incubated with 20 mM Tris/HCl pH 7.5, 0.2 mM EDTA, 500 μM GEEPLYWSFPAKKK, 10 mM MgAcetate and [γ-^33P-ATP] (specific activity approx. 500 cpm/pmol, concentration as required). The reaction is initiated by the addition of the MgATP mix. After incubation for 40 minutes at room temperature, the reaction is stopped by the addition of 3% phosphoric acid solution. 10 μL of the reaction is then spotted onto a P30 filtermat and washed three times for 5 minutes in 75 mM phosphoric acid and once in methanol prior to drying and scintillation counting.
(§2) The kinase assays described herein were performed at Millipore UK Ltd, Dundee Technology Park, Dundee DD2 1SW, UK.

[1] = Compound stability in rat liver microsomes; assay type: in vitro ADME; details: pH 7.4; for half-life at 5 μM: rat liver microsomes 0.5 mg protein/mL, compound 5 μM, NADPH 1.0 mM, 37° C., read-out: Rat T1/2; for CLint scaled at 5 μM: rat liver microsomes, in vivo CLint extrapolated
Experimental: (§3) Human or rat liver microsomes incubations were conducted in duplicate in polypropylene tubes. The typical incubation mixtures consisted of human or rat liver microsomes (0.5 mg protein/mL), compounds of interest (5 μM) and NADPH (1.0 mM) in a total volume of 200 μL potassium phosphate buffer (PBS, 100 mM, pH 7.4). Compounds were dissolved in DMSO and diluted with PBS such that the final concentration of DMSO was 0.05%. The enzymatic reactions were commenced with the addition of protein after a 3-min preincubation and incubated in a water bath open to the air at 37° C. Reactions were terminated at various time points (0, 5, 10, 15, 30, 60 min) by adding equal volume of ice-cold acetonitrile. The samples were stored at −80° C. until LC/MS/MS assays.
(§4) The concentrations of compounds in the incubation mixtures of human or rat liver microsomes were determined by a LC/MS/MS method. The ranges of the linearity in the concentration range were determined for each tested compounds.
(§5) A parallel incubation was performed using denatured microsomes as the negative control, and reactions were terminated at various time points (0, 15, 60 min) after incubation at 37° C.
(§6) Dextromethorphan (70 μM) was selected as the positive control, and reactions were terminated at various time points (0, 5, 10, 15, 30, 60 min) after incubation at 37° C. Both positive and negative control samples were included in each assay to ensure the integrity of the microsomal incubation system.
(§7) The concentrations of compounds in human or rat liver microsome incubations were plotted as a percentage of the relevant zero time point control for each reaction. The in vivo CLint were extrapolated (ref.: Naritomi, Y.; Terashita, S.; Kimura, S.; Suzuki, A.; Kagayama, A.; and Sugiyama, Y.; Prediction of human hepatic clearance from in vivo animal experiments and in vitro metabolic studies with liver microsomes from animals and humans. Drug Metab. Dispos., 2001, 29: 1316-1324).

[2] = Pharmacokinetics after intravenous and oral administration in rats; assay type: in vivo; details: for Clearance (CL) after iv dosing / AUC(0-t) / half-life / Vd: dose 1 mg/kg, iv dosing; for F: oral bioavailability, iv dose 1 mg/kg; for AUC(0-t) / half-life / Vd: rat, plasma; for Vd: read-out: Vss
Experimental: The compounds disclosed herein are assessed in pharmacokinetic studies in mice, rats, dogs or monkeys. The compounds are administered as a water solution, 2% HPMC+1% TWEEN®80 in water solution, 5% DMSO+5% solutol in saline, 4% MC suspension or capsule. For the intravenous administration, the animals are generally given at 0.5, 1 or 2 mg/kg dose. For the oral (p.o.) dosing, mice and rats are generally given 0.5, 1, 5 or 10 mg/kg dose, and dogs and monkeys are generally given 10 mg/kg dose. The blood samples (0.3 mL) are drawn at 0.25, 0.5, 1.0, 2.0, 3.0, 4.0, 6.0, 8.0, 12 and 24 h time points or 0.083, 0.25, 0.5, 1.0, 2.0, 4.0, 6.0, 8.0 and 24 h time points and centrifuged at 3,000 or 4000 rpm for 2 to 10 min. The plasma solutions are collected, and stored at −20° C. or −70° C. until analyzed by LC/MS/MS as described above.

[3] = Compound stability in human liver microsomes; assay type: in vitro ADME; details: pH 7.4; for half-life at 5 μM: human liver microsomes 0.5 mg protein/mL, compound 5 μM, NADPH 1.0 mM, 37° C., read-out: Human T1/2; for CLint scaled at 5 μM: human liver microsomes, in vivo CLint extrapolated
Experimental: as §3, §4, §5, §6, §7

Aurora-B (h) = Aurora-B (h) (Homo sapiens (Human), UniProt Q96GD4); test: Aurora-B (h) kinase activity assay; assay type: biochemical
Chain of Aurora-B (h) (Q96GD4 whole entry): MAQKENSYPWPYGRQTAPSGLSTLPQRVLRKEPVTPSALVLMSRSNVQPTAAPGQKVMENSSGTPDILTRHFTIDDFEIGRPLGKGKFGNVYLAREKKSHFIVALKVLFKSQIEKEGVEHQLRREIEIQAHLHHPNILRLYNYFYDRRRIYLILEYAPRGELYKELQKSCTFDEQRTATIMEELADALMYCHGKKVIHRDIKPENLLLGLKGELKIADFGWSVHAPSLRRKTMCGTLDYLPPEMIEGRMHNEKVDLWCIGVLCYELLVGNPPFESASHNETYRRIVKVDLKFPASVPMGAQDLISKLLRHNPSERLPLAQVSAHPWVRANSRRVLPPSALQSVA
Experimental: as §1
(§8) Aurora-B (h) is incubated with 8 mM MOPS pH 7.0, 0.2 mM EDTA, 30 μM AKRRRLSSLRA, 10 mM MgAcetate and [γ-^33PATP] (specific activity approx. 500 cpm/pmol, concentration as required). The reaction is initiated by the addition of the MgATP mix. After incubation for 40 minutes at room temperature, the reaction is stopped by the addition of a 3% phosphoric acid solution. 10 μL of the reaction is then spotted onto a P30 filtermat and washed three times for 5 minutes in 75 mM phosphoric acid and once in methanol prior to drying and scintillation counting.
as §2

Aurora-A (h) = Aurora-A (h) (Homo sapiens (Human), UniProt O14965); test: Aurora-A (h) kinase activity assay; assay type: biochemical
Chain of Aurora-A (h) (O14965 whole entry): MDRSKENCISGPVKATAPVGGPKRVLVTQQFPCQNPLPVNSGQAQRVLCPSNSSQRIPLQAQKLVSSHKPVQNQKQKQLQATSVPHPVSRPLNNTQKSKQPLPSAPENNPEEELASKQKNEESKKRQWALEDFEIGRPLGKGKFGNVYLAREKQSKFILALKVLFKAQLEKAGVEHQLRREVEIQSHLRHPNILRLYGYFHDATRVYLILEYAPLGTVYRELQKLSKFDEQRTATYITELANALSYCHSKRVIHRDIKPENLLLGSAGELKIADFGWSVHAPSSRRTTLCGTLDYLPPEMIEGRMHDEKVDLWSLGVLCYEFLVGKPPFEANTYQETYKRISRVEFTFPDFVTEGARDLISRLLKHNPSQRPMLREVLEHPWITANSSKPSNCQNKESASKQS
Experimental: as §1
as §8, with “Aurora-A (h)” for “Aurora-B (h)”, “EDTA, 200” for “EDTA, 30”, “μM LRRASLG (Kemptide),” for “μM AKRRRLSSLRA,”, “and [γ-^33P-ATP]” for “and [γ-^33PATP]”, “of” for “of a”
as §2

Chain of JAK1 (h) (P23458 whole entry): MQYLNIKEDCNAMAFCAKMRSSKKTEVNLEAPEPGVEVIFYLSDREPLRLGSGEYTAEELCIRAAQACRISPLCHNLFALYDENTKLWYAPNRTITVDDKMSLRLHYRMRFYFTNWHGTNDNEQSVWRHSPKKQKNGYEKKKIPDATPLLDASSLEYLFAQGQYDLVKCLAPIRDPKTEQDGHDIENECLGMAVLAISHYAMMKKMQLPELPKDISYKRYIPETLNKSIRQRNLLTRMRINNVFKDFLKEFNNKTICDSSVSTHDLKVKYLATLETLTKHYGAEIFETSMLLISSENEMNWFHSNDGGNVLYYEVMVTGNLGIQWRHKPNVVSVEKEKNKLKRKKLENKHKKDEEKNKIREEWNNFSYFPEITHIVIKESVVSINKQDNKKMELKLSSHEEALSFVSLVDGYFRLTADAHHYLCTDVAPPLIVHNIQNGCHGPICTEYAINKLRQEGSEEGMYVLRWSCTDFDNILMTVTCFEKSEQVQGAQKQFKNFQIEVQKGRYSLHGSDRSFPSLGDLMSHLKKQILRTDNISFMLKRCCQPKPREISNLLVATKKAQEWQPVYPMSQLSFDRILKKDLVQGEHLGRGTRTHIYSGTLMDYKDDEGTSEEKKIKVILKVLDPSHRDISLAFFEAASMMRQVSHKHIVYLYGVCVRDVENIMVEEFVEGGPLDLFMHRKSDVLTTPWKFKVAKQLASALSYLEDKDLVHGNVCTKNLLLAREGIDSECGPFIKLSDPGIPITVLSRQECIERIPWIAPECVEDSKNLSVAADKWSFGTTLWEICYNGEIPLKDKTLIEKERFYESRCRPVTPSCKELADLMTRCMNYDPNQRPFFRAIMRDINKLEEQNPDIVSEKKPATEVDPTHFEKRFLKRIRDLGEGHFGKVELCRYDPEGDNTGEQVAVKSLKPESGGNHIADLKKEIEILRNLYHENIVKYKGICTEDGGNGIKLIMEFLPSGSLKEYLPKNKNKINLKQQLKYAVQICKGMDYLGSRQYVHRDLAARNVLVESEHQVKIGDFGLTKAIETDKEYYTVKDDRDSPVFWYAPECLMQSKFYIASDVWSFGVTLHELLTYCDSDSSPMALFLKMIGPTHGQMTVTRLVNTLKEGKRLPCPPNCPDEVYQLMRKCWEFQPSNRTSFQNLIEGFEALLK

SMILES: Cn1cc(Nc2ncc(Cl)c(NC3CC4CN(S(=O)(=O)NC5CC5)CC4C3)n2)cn1 (stereo not shown) [Ex. 34, 5-((5-chloro-2-((1-methyl-1H-pyrazol-4-yl)amino)pyrimidin-4-yl)amino)-N-cyclopropylhexahydrocyclopenta[c]pyrrole-2(1H)-sulfonamide]
pIC50 (JAK1 (h)): 8.52 | half-life at 5 μM [1]: 17.8 min | CLint scaled at 5 μM [1]: 140 mL/min/kg | Clearance (CL) after iv dosing [2]: 48.8 mL/min/kg | F [2]: 54.0% | AUC(0-t) [2]: 348 ng·h/mL | half-life [2]: 17.4 min | Vd [2]: 1.18 L/kg | half-life at 5 μM [3]: 35.7 min | CLint scaled at 5 μM [3]: 48.6 mL/min/kg | pIC50 (Aurora-B (h)): 9.10 | pIC50 (Aurora-A (h)): 9.00

SMILES: CCNS(=O)(=O)N1CC2CC(Nc3nc(Nc4cnn(C)c4)ncc3Cl)CC2C1 (stereo not shown) [Ex. 24, 5-((5-chloro-2-((1-methyl-1H-pyrazol-4-yl)amino)pyrimidin-4-yl)amino)-N-ethylhexahydrocyclopenta[c]pyrrole-2(1H)-sulfonamide]
pIC50 (JAK1 (h)): 8.70 | half-life at 5 μM [1]: 9.3 min | CLint scaled at 5 μM [1]: 267 mL/min/kg | Clearance (CL) after iv dosing [2]: 75.8 mL/min/kg | F [2]: 31.9% | AUC(0-t) [2]: 231 ng·h/mL | half-life [2]: 24 min | Vd [2]: 2.02 L/kg | half-life at 5 μM [3]: 34 min | CLint scaled at 5 μM [3]: 51.2 mL/min/kg | pIC50 (Aurora-B (h)): 9.15 | pIC50 (Aurora-A (h)): 8.52

SMILES: Cn1cc(Nc2ncc(Cl)c(NC3CC4CN(C(=O)NC5CC5)CC4C3)n2)cn1 (stereo not shown) [Ex. 19, 5-((5-chloro-2-((1-methyl-1H-pyrazol-4-yl)amino)pyrimidin-4-yl)amino)-N-cyclopropylhexahydrocyclopenta[c]pyrrole-2(1H)-carboxamide]
pIC50 (JAK1 (h)): 7.64 | half-life at 5 μM [1]: 96.9 min | CLint scaled at 5 μM [1]: 25.6 mL/min/kg | Clearance (CL) after iv dosing [2]: 63.7 mL/min/kg | F [2]: 24.0% | AUC(0-t) [2]: 263 ng·h/mL | half-life [2]: 21 min | Vd [2]: 0.95 L/kg | half-life at 5 μM [3]: 178 min | CLint scaled at 5 μM [3]: 9.78 mL/min/kg | pIC50 (Aurora-B (h)): 9.00 | pIC50 (Aurora-A (h)): 8.10

SMILES: CC(C)(O)Cn1cc(Nc2ncc(Cl)c(NC3CC4CN(S(C)(=O)=O)CC4C3)n2)cn1 (stereo not shown) [Ex. 39, 1-(4-((5-chloro-4-((2-(methylsulfonyl)octahydrocyclopenta[c]pyrrol-5-yl)amino)pyrimidin-2-yl)amino)-1H-pyrazol-1-yl)-2-methylpropan-2-ol]
pIC50 (JAK1 (h)): 8.70 | half-life at 5 μM [1]: 39.2 min | CLint scaled at 5 μM [1]: 63.3 mL/min/kg | Clearance (CL) after iv dosing [2]: 96 mL/min/kg | F [2]: 40.5% | AUC(0-t) [2]: 295 ng·h/mL | half-life [2]: 38.4 min | Vd [2]: 1.88 L/kg | half-life at 5 μM [3]: 49.6 min | CLint scaled at 5 μM [3]: 35 mL/min/kg | pIC50 (Aurora-B (h)): 9.00 | pIC50 (Aurora-A (h)): 8.70

SMILES: CC(O)Cn1cc(Nc2ncc(Cl)c(NC3CC4CN(S(C)(=O)=O)CC4C3)n2)cn1 (stereo not shown) [Ex. 38, 1-(4-((5-chloro-4-((2-(methylsulfonyl)octahydrocyclopenta[c]pyrrol-5-yl)amino)pyrimidin-2-yl)amino)-1H-pyrazol-1-yl)propan-2-ol]
pIC50 (JAK1 (h)): 9.00 | half-life at 5 μM [1]: 45.5 min | CLint scaled at 5 μM [1]: 54.6 mL/min/kg | Clearance (CL) after iv dosing [2]: 62.8 mL/min/kg | F [2]: 35.3% | AUC(0-t) [2]: 270 ng·h/mL | half-life [2]: 25.2 min | Vd [2]: 1.65 L/kg | half-life at 5 μM [3]: 67.1 min | CLint scaled at 5 μM [3]: 25.9 mL/min/kg | pIC50 (Aurora-B (h)): 9.00 | pIC50 (Aurora-A (h)): 9.10

Continued, values first:

Clearance (CL) after iv dosing [2]: 60.8 mL/min/kg | F [2]: 31.4% | AUC(0-t) [2]: 276 ng·h/mL | half-life [2]: 51.6 min | Vd [2]: 1.75 L/kg | pIC50 (Aurora-B (h)): 9.00 | pIC50 (Aurora-A (h)): 8.30
SMILES: CC(O)Cn1cc(Nc2ncc(Cl)c(NC3CC4CN(S(=O)(=O)C5CC5)CC4C3)n2)cn1 (stereo not shown) [Ex. 44, 1-(4-((5-chloro-4-((2-(cyclopropylsulfonyl)octahydrocyclopenta[c]pyrrol-5-yl)amino)pyrimidin-2-yl)amino)-1H-pyrazol-1-yl)propan-2-ol]

Clearance (CL) after iv dosing [2]: 60.7 mL/min/kg | F [2]: 24.9% | AUC(0-t) [2]: 277 ng·h/mL | half-life [2]: 15.6 min | Vd [2]: 1.13 L/kg | pIC50 (Aurora-B (h)): 9.00 | pIC50 (Aurora-A (h)): 8.00
SMILES: CC(O)Cn1cc(Nc2ncc(Cl)c(NC3CC4CN(S(=O)(=O)CC5CC5)CC4C3)n2)cn1 (stereo not shown) [Ex. 46, 1-(4-((5-chloro-4-((2-((cyclopropylmethyl)sulfonyl)octahydrocyclopenta[c]pyrrol-5-yl)amino)pyrimidin-2-yl)amino)-1H-pyrazol-1-yl)propan-2-ol]

Clearance (CL) after iv dosing [2]: 69.3 mL/min/kg | F [2]: 22.4% | AUC(0-t) [2]: 239 ng·h/mL | half-life [2]: 42.6 min | Vd [2]: 2.37 L/kg | pIC50 (Aurora-B (h)): 9.22 | pIC50 (Aurora-A (h)): 8.15
SMILES: CC(O)Cn1cc(Nc2ncc(Cl)c(NC3CC4CN(S(=O)(=O)NC5CC5)CC4C3)n2)cn1 (stereo not shown) [Ex. 47, 5-((5-chloro-2-((1-(2-hydroxypropyl)-1H-pyrazol-4-yl)amino)pyrimidin-4-yl)amino)-N-cyclopropylhexahydrocyclopenta[c]pyrrole-2(1H)-sulfonamide]

Clearance (CL) after iv dosing [2]: 62.3 mL/min/kg | F [2]: 27.1% | AUC(0-t) [2]: 267 ng·h/mL | half-life [2]: 39.6 min | Vd [2]: 1.97 L/kg | pIC50 (Aurora-B (h)): 9.10 | pIC50 (Aurora-A (h)): 8.30
SMILES: CCNS(=O)(=O)N1CC2CC(Nc3nc(Nc4cnn(CC(C)O)c4)ncc3Cl)CC2C1 (stereo not shown) [Ex. 45, 5-((5-chloro-2-((1-(2-hydroxypropyl)-1H-pyrazol-4-yl)amino)pyrimidin-4-yl)amino)-N-ethylhexahydrocyclopenta[c]pyrrole-2(1H)-sulfonamide]
